From ChEMBL document CHEMBL4130450, “Mixed Aryl Phosphonate Prodrugs of a Butyrophilin Ligand” (ACS Med Chem Lett, 2017)
The source made the active and inactive calls. No cut-off for these calls is given here.

What was measured:
[1] = biological target: T1, Butyrophilin subfamily 3 member A1 (Homo sapiens, UniProt O00481); assay: Binding affinity to BTN3A1 intracellular domain (unknown origin) at 250 uM by isothermal titration calorimetry
Target sequence in this assay (O00481 30-513 limits assumed): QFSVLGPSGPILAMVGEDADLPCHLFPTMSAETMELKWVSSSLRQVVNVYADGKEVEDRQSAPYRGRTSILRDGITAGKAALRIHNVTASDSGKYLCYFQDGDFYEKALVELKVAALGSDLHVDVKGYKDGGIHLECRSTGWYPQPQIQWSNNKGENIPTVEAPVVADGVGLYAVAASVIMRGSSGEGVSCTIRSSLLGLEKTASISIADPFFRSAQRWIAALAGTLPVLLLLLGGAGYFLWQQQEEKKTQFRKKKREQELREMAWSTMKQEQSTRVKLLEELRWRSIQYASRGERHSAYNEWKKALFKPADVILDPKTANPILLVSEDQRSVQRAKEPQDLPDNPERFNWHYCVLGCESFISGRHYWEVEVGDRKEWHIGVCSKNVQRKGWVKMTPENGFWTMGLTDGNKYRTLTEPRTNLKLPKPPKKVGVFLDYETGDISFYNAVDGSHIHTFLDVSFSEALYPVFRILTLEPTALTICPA

[2] = biological target: T1, Butyrophilin subfamily 3 member A1; assay: Inhibition of HMBPP binding to BTN3A1 intracellular domain (unknown origin) at compound to HMBPP molar ratio of 100 by isothermal titration calorimetry
Target sequence in this assay (O00481 30-513 limits assumed): as above

[3] = Activation of BTN3A1 in human PBMC-derived Vgamma9Vdelta2 T cells assessed as induction of interleukin 2 stimulated cell proliferation by measuring increase in CD3 positive cells incubated for 3 days followed by 11 days incubation post compound wash out with subsequent stimulation with IL-2 every 3 days measured after 14 days by flow cytometry
[4] = biological target: T1, Butyrophilin subfamily 3 member A1; assay: Activation of BTN3A1 in human PBMC-derived Vgamma9Vdelta2 T cells assessed as induction of interferon gamma production in response to K562 cells preincubated for 4 hrs […] followed by 11 days incubation post compound wash out with subsequent coculturing with Vgamma9Vdelta2 T cells for 20 hrs by ELISA; assay type: cell-based
Target sequence in this assay (O00481 whole entry, the tested form may be a part): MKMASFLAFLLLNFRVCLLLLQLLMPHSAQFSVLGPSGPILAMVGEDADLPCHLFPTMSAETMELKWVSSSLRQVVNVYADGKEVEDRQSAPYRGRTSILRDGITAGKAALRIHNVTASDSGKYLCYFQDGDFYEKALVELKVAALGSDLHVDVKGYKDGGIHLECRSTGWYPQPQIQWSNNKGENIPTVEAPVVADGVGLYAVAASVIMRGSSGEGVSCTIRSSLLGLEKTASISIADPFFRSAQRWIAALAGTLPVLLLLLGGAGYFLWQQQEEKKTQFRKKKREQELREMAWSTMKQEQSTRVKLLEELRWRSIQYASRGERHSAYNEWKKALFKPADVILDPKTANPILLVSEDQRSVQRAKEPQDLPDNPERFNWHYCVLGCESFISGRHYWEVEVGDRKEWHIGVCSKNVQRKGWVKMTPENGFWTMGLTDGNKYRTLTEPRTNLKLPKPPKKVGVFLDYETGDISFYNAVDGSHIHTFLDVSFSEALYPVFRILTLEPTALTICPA

SMILES | Activity [1] | EC50 [4] | other results
C/C(=C\CCP(=O)(O)Oc1ccccc1)CO | inactive | – | –
C/C(=C\CCP(=O)(O)Oc1cccc2ccccc12)CO | inactive | – | inhibition [2]: inactive
C/C(=C\CCP(=O)(O)O)CO | – | – | EC50 [3]: 4000 nM
C/C(=C\CCP(=O)(COC(=O)C(C)(C)C)OCOC(=O)C(C)(C)C)CO (stereo unspecified) | – | 24 nM | –
C/C(=C\CCP(=O)(COC(=O)C(C)(C)C)Oc1cccc2ccccc12)CO (stereo unspecified) | – | 9 nM | –
